Consider two compounds from US5202130A, “Suppression of eczematous dermatitis by calcium transport inhibition” (The Johns Hopkins University, priority 1989, dated 1993).

Data set [1] concerns contact sensitization against DNCB. The experiment in a line: Inhibition of sensitization by diltiazem against DNCB (ear swelling). In kind it is in vivo, BALB/c mice. How it is done:
Diltiazem HCl (1,5-Benzothiazepin-4(5H)one, 3-acetoy lox-5-(2-(dimethylamine)ethyl)-2, 3-dihydro-2(4-methoxyphenyl)-, monohydrochloride, (+)-cis) was injected intraperitoneally in a dose of 30 mg/kg (LD50 =60 mg per kg) two times a day for three days. Two hours after the first injection, mice were sensitized by applying DNCB to the shaved dorsal back skin. Contact sensitization against DNCB was determined five days later.

The conditions of data set [2]: stated with intraperitoneal administration in mice; no test described; cited from earlier work.
The subject of data set [3] is epidermal Langerhans cells (ELC). The experiment in a line: Density and morphology of epidermal Langerhans cells, ATPase and Ia staining. The data set is classed as in vivo, BALB/c mice. From the text: Mice were sacrificed by cervical dislocation and their ears were amputated at the base. The skin was separated from underlying cartilage by dissection and pressed dermal side up onto an adhesive surface of a double stick tape (Dermotome Tape, 3M, St. Paul, Minn.), that had previously been fixed onto a glass slide. […] (25,26), then the epidermis was separated as an intact sheet from the underlying dermis.
Epidermal sheets were stained for ATPase activity according to MacKenzie and Squier (27). Briefly, epidermal sheets were fixed in Tris-maleic acid buffered 4% paraformaldehyde, pH 7.3, for 20 minutes at 4° C. After three washes with a 0.9% NaCl solution, the epidermal sheets were incubated at pH 7.3 in a solution containing 10 mg ATP, 5 ml of 10% MgSO4, 3 ml of 2% […], and 42 ml Tris-maleic acid buffer for one hour at 37° C., washed with 0.9% NaCl solution, and reacted with 0.1% ammonium sulfide for five minutes at room temperature. The stained specimens were mounted in a 9:1 mixture of PBS/glycerol.
Ia-positive cells were stained as follows: EDTA separated epidermal specimens, washed in PBS for 30 minutes, were fixed in cold acetone (-20° C.) for 20 minutes. After washing with PBS, the epidermal sheets were incubated with a 1:100 dilution of anti-mouse I-A^d monoclonal antibody (Becton Dickinson, Mountain View, Calif.) at 4° C. overnight (28). Subsequently, specimens were washed in PBS for two hours and exposed to fluorescein conjugated F(ab')2 fragment goat anti-mouse IgG (Organon Teknika Corp., West Chester, Pa.) at a 1:50 dilution for two hours at 37° C. The epidermal sheets were mounted in Perma Fluor (Lipshaw, Detroit, Mich.).
Slides were coded and read in a "blinded" manner. The density of ELC within each epidermal sheet was determined by using a dual epifluorescent and light microscope (Olympus BH-2, Japan) with a calibrated net micrometer grid. ATPase-positive ELC and Ia-positive ELC present in a 0.25 mm^2 area were counted in two random fields per sheet (total: 16 fields per experimental group). ELC density was recorded as the number of cells per mm^2 (mean ±S.E.). Statistical significance of the differences between treatment and control groups was calculated using a two-talled Wilcoxon Rank Sum Test. Differences between groups were considered significant at p=0.05.

For data set [4] the following is noted: following intraperitoneal administration; cited from earlier work.
Where [5] appears, read: 0.25 mg per animal intraperitoneally for five days, vs control animals.

Where a name gives a salt, the structure may show the parent alone.

With `COc1ccc([C@@H]2Sc3ccccc3N(CCN(C)C)C(=O)[C@@H]2OC(C)=O)cc1` [diltiazem, 1,5-Benzothiazepin-4(5H)one, 3-acetoy lox-5-(2-(dimethylamine)ethyl)-2,3-dihydro-2(4-methoxyphenyl)-, monohydrochloride, (+)-cis], in data set [1] (30 mg/kg intraperitoneally two times a day for three days, p=0.001), the “reduction in the contact hypersensitivity response” value amounted to 67%. The “decrease in ear thickness 24 h post-challenge” value in data set [1] (FIG. 3, vs. solvent only, p<0.001) worked out at 67%. For the same compound, in data set [1] (statement follows negative controls (challenged, not sensitized) 0.03±0.01 mm), the “difference in ear swelling between pretreated and control animals” value was “not statistically significant”. Further, the ear swelling in data set [1] (vehicle control 0.15±0.02 mm) stood at 0.05±0.01 mm. Further, the LD50 in data set [2] is 60 mg per kg.
lanthanum citrate [La^3+ citrate]: in data set [3] (setting [5]), the “decrease in density of ATPase positive cells” value worked out at 13% and the “decrease in number of Ia-positive cells” value is recorded as 14%. Further, in data set [3] (ATPase staining, ± S.E., 0.9% NaCl 807 ± 55), the “Density of Langerhans cells in ear skin, ATPase” value is reported as 702 ± 49 cells/mm^2. In data set [3] (Ia staining, ± S.E., 0.9% NaCl 830 ± 46), the “Density of Langerhans cells in ear skin, Ia” value stood at 715 ± 59 cells/mm^2. Moreover, in data set [3] (in focal areas, ATPase and Ia staining), the “ELC "rounded up" and without dendrites” value was “approximately 20%”. In addition, the “staining of "round" cells by the ATPase technique” value in data set [3] (subjectively measured by darkening of the cell body) is given as “more darkly stained”. Besides, in data set [4], the “accumulation in the skin” value is given as “accumulated in the skin”.
